Source: patent US5843969A, “Protecting agent for organ or tissue” (Teijin Limited, priority 1995, dated 1998)

How the values were obtained:
[1] = test system: rats; assay: acute toxicity test, single oral administration in rats; assay type: in vivo, rat; conditions: single oral administration up to 300 mg/kg
Procedure: Further, for the safety evaluation of the agent of the present invention, an acute toxicity test is carried out with rats in terms of 2-(3-cyano-4-isobutyloxyphenyl)-4-methyl-5-thiazolecarboxylic acid as the active component.

[2] = test system: ischemia-reperfusion injury model of kidney; assay: renal ischemia-reperfusion injury model in rats, serum creatinine (Cre) level; assay type: in vivo, SD rat; conditions: 50 mg/kg oral 60 min prior to 60-min ischemia; 24-hour reperfusion; mean ± standard deviation; control 3.6±0.4, sham 0.4±0.0; p<0.05 vs control
Procedure: (§1) An ischemia-reperfusion injury model of kidney for studying effect on the ischemia-reperfusion injury was prepared with a rat as shown below, and the effect of the administration of the active component of the agent of the present invention was studied by using the model animal.
(§2) The abdomen of an SD rat (male, 6 weeks of age) was opened under anesthesia with sodium pentobarbital, the separated left and right renal arteries were clamped with arterial clips to block the blood flow completely, and the kidneys were brought into an ischemic state. After 60-minute ischemia, the artery clamps were released, and blood flow was restarted to bring the kidneys to a reperfused state. After the suture of the opened abdomen, the animal was returned to a cage and allowed to have free access to food and water. […]
(§3) Serum was separated from the obtained blood sample by centrifugation. Blood urea nitrogen (BUN) level and serum creatinine (Cre) level, a parameter for kidney function injury, were determined on the serum using an automated analyzer (Hitachi 7070) by an urease-indophenol method and Jaffe method, respectively.
(§4) 2-(3-Cyano-4-isobutyloxyphenyl)-4-methyl-5-thiazolecarboxylic acid, the active component, was suspended in a 0.5% methylcellulose aqueous solution. […] The results were each expressed as the mean ± standard deviation. […]

[3] = test system: ischemia-reperfusion injury model of kidney; assay: renal ischemia-reperfusion injury model in rats, serum BUN level; assay type: in vivo, SD rat; conditions: 50 mg/kg oral 60 min prior to 60-min ischemia; 24-hour reperfusion; compared with control group (FIG. 2)
Procedure: as §1, §2, §3, §4

[4] = test system: RBL-1 cells; assay: leukotriene B4 production in cultured RBL-1 cells (A23187 stimulated, enzyme immunoassay); assay type: cell-based
Procedure: RBL-1 cells (Dainippon Pharmaceutical Co.) were cultured in a Dulbecco's Modified Eagle's Medium containing fetal bovine serum in an amount of 10%. The cultured cells were adjusted to 5×10^6 cells/ml. […] After incubated at 37° C. for 5 min, this was immersed into ice and kept for 10 min. Subsequently, 2×10^-5 mol of A23187, Ca-ionophore, was added to the chilled cell suspension to make the final concentration of […], and the cell suspension was incubated again at 37° C. for 15 min. Further, the suspension was held in ice for 10 min. The suspension was subjected to centrifugation at 3000 rpm for 10 min and the cells were removed. Leukotriene B4 (LTB4) level in the supernatant was measured by enzyme immunoassay. […] A significant difference test against the control group was carried out using Bonferroni's test of a multiple comparison.

[5] = test system: DNFB-sensitized mice; assay: survival rate in DNFB-sensitized mice (allergic dermatitis model); assay type: in vivo, BALB/c mouse; conditions: 3, 10, 30 and 100 mg/kg/day oral; up to 6th day after final sensitization (FIGS. 4A and 4B)
Procedure: (§5) Therefore, the presence of such side effects was examined on the active component of the agent of the present invention by using a mouse allergic dermatitis model.
(§6) Hair was removed from the abdomen to the breast of a BALB/c mouse (male, 8 weeks of age) with hair clippers and a shaver. A 0.5% dinitro-fluorobenzene (DNFB) ethanol solution (100 μl head/day) was applied on the hair-removed part one day and two days after the removal of hair to establish sensitization. 2-(3-Cyano-4-isobutyloxyphenyl)-4-methyl-5-thiazolecarboxylic acid, the active component of the present invention, and allopurinol are each suspended in a 0.5% methylcellulose aqueous solution. Each suspension (3, 10, 30 and 100 mg/kg/10 ml/day) was orally administered to an animal at the same time of each DNFB sensitization. […]
(§7) The variations with time of the survival rate and the body weights of the mice administered with the agents were followed up to the 6th day after the final sensitization and recorded. […] The ear thicknesses were measured with a dial thickness gauge (Ozaki Seisakusho, G-1A) before the elicitation, and 24 hr and 48 hr after the elicitation.
(§8) The variations of the body weights and the ear thicknesses were expressed as the mean ± standard deviation for each group. […]

[6] = test system: DNFB-sensitized mice; assay: body weight in DNFB-sensitized mice (allergic dermatitis model); assay type: in vivo, BALB/c mouse; conditions: survived animals
Procedure: as §5
Hair was removed from the abdomen to the breast of a BALB/c mouse (male, 8 weeks of age) with hair clippers and a shaver. A 0.5% dinitro-fluorobenzene (DNFB) ethanol solution (100 μl head/day) was applied on the hair-removed part one day and two days after the removal of hair to establish sensitization. 2-(3-Cyano-4-isobutyloxyphenyl)-4-methyl-5-thiazolecarboxylic acid, the active component of the present invention, and allopurinol are each suspended in a 0.5% methylcellulose aqueous solution. Each suspension (3, 10, 30 and 100 mg/kg/10 ml/day) was orally administered to an animal at the same time of each DNFB sensitization. The number of animals is 8 for each of a 3- and a 10-mg/kg/10 ml/day group, and 10 for each of a 30- and a 100-mg/kg/10 ml/day group in each of the active component and the allopurinol. As the control group, 10 ml/kg of 0.5% methylcellulose aqueous solution, the solvent for the active component and allopurinol, was administered to each of 8 sensitized animals.
The variations with time of the survival rate and the body weights of the mice administered with the agents were followed up to the 6th day after the final sensitization and recorded. For survived sensitized animals, a 0.3% DNFB acetone-olive oil (4:1) mixed solution (10 μl on each of the obverse and the reverse side of an ear) was applied on one ear to elicit an immune reaction and an acetone-olive oil (4:1) mixed solution (10 μl on each of the obverse and the reverse side of an ear) was applied on the other ear on the sixth day after the final sensitization. The ear thicknesses were measured with a dial thickness gauge (Ozaki Seisakusho, G-1A) before the elicitation, and 24 hr and 48 hr after the elicitation.
as §8

[7] = test system: DNFB-sensitized mice; assay: ear thickness after elicitation of immune reaction in DNFB-sensitized mice; assay type: in vivo, BALB/c mouse
Procedure: as §5, §6, §7, §8

[8] = clinical application; The Journal of Medicine 1984; The Annals of Pharmacotherapy 1993; cited from earlier work

SMILES	death of rats [1]	serum Cre level [2]	serum BUN level [3]	LTB4 production ([4]; 1×10^-8 mol (final concentration of 10 μM), p<0.001 vs control (FIG. 3))	survival rate [5]	body weight change ([6]; 3, 10, 30 and 100 mg/kg/day oral, up to 6th day after final sensitization (FIG. 5A))	increase of the ear thickness ([7]; 3, 10, 30 and 100 mg/kg/day oral, 24 hr and 48 hr after elicitation (FIG. 6))	LTB4 production ([4]; up to 1×10^-8 mol (final concentration of up to 10 μM) (FIG. 3))	body weight change ([6]; 30 mg/kg oral, p<0.01 vs control (FIG. 5B))	body weight change ([6]; 100 mg/kg oral, p<0.05 vs control (FIG. 5B))	increase of the ear thickness and allergy reaction ([7]; 30 mg/kg oral, after elicitation, p<0.05 vs control (FIG. 6))	side effects [8]
Cc1nc(-c2ccc(OCC(C)C)c(C#N)c2)sc1C(=O)O [2-(3-cyano-4-isobutyloxyphenyl)-4-methyl-5-thiazolecarboxylic acid]	None of rats died	2.3 ± 1.1 mg/dL	exhibited a tendency to suppress the increase of the serum BUN	suppresses the production of LTB4 significantly	all animals were survived, excluding one animal of the 100 mg/kg/day group	did not produce a significant change on the body weights of the animals	none of the effect in terms of the increase of the ear thicknesses was observed					
Oc1ncnc2[nH]ncc12 [allopurinol, reference compound]					survival rate decreased dose-dependently with time from a low dose level			had no effect on the production	decreased the body weights of the animals significantly	decreased the body weights of the animals significantly	stimulated the increase of the ear thicknesses, and the allergy reaction significantly	side effects including an allergy reaction during clinical application and occasionally the side effect is so severe that the patient is brought to death
